Measurements published in ChEMBL document CHEMBL1201862, “PubChem BioAssay data set” (2004).
The source made the active and inactive calls.

Legend:
[1] = ADAM10 protease inhibitors, dose response, selectivity assay for ADAM17 exosite inhibitor project, biochemical, FRET peptide substrate, recombinant human ADAM10 (AID 743259);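 note: ADAM10 enzyme cleaving a FRET peptide substrate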
[2] = molecular target: Disintegrin and metalloproteinase domain-containing protein 17 (Homo sapiens, UniProt P78536); assay: exosite inhibitors of ADAM17, dose response, biochemical (AID 743260)
Sequence of Disintegrin and metalloproteinase domain-containing protein 17 (P78536 whole entry, the tested form may be a part): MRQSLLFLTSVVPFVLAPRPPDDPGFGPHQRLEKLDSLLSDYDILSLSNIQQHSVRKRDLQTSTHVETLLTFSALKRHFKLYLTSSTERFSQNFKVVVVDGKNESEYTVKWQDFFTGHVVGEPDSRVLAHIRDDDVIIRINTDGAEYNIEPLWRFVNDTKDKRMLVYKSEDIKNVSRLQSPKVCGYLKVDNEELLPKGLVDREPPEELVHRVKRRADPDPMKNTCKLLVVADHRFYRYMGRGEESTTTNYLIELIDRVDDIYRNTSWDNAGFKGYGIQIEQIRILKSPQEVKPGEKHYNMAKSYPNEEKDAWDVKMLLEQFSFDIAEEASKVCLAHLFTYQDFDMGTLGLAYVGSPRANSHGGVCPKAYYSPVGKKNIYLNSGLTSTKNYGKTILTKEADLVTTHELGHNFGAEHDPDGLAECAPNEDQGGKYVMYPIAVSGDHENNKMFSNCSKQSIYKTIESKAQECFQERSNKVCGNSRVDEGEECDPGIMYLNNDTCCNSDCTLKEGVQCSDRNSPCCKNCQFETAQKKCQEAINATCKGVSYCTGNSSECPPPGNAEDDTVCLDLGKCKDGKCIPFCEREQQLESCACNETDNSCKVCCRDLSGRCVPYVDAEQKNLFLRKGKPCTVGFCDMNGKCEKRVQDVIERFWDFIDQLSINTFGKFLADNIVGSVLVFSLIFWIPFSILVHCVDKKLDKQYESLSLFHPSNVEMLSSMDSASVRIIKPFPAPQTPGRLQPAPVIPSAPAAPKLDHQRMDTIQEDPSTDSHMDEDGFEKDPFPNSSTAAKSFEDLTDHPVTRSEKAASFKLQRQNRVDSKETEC

Cytochrome P450 3A4 = Cytochrome P450 3A4 (Homo sapiens, UniProt P08684);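 note: CYP3A4 tested as one member of a cytochrome P450 panel screen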
Sequence of Cytochrome P450 3A4 (P08684 whole entry): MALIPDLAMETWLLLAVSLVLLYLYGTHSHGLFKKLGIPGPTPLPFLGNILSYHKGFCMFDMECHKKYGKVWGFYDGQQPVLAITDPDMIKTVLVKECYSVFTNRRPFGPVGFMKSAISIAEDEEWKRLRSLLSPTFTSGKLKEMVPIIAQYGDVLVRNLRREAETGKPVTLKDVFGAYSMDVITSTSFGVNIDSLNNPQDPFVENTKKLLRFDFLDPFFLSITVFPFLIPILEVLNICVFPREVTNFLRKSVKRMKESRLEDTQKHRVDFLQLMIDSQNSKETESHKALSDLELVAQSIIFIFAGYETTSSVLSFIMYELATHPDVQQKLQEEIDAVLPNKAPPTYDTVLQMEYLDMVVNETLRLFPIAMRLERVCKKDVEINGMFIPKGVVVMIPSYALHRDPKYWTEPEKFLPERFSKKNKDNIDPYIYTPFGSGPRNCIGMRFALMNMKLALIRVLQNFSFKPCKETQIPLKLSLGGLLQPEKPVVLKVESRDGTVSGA

[3] = molecular target: Voltage-dependent T-type calcium channel subunit alpha-1H (Homo sapiens, UniProt O95180); type: functional;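 note: channel activity triggered by adding a high calcium stimulation buffer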
Kallikrein-7 = Kallikrein-7 (Homo sapiens, UniProt P49862); assay: Fluorescence Intensity-based biochemical primary high throughput dose response assay to identify activators of kallikrein-7 (K7) zymogen.
Sequence of Kallikrein-7 (P49862 whole entry): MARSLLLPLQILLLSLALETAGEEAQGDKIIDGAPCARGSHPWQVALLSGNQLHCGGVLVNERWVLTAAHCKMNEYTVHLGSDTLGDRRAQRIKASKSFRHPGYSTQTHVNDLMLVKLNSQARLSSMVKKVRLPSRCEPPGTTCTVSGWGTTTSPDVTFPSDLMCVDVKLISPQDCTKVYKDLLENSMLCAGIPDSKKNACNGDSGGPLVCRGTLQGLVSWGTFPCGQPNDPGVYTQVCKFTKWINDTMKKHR

Protein skinhead-1 = molecular target: T1, Protein skinhead-1 (Caenorhabditis elegans, UniProt P34707); type: functional
T1 sequence (P34707 whole entry): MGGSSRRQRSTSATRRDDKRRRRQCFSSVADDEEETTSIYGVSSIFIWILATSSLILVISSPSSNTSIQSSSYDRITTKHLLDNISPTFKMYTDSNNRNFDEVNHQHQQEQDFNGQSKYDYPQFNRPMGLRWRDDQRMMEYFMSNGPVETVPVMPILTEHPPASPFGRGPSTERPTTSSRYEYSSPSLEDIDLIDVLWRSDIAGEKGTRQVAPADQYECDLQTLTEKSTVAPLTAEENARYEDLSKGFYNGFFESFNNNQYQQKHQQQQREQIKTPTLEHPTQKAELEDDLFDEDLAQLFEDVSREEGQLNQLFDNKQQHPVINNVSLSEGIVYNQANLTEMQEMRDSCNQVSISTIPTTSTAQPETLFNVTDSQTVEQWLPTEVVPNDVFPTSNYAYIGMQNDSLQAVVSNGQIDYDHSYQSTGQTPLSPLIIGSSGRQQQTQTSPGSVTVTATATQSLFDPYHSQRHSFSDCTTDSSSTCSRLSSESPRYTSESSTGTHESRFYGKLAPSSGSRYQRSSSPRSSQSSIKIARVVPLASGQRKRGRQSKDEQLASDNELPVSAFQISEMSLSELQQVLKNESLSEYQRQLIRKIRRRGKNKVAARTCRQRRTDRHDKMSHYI

Protein Tat = Protein Tat (Human immunodeficiency virus type 1 group M subtype B (isolate HXB2)(HIV-1), UniProt P04608); type: functional;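 note: tat binding to TAR RNA read out by fluorescence polarization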
Large T antigen = Large T antigen (Simian virus 40, UniProt P03070); type: functional, Betapolyomavirus macacae;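 note: Confirmatory-stage PubChem screen for compounds that inhibit SV40 T antigen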
[4] = Counterscreen for activators of the function of SWI/SNF related, matrix associated, actin dependent regulator of chromatin, subfamily a, member 2 (SMARCA2, BRM): Luminescence-based cell-based high throughput dose response assay to identify non-selective compounds using the VP16 reporter assay.; type: functional
[5] = molecular target: SWI/SNF-related matrix-associated actin-dependent regulator of chromatin subfamily A member 2 (Homo sapiens, UniProt P51531); assay: Luminescence-based cell-based high throughput dose response assay to identify activators of the function of SWI/SNF related, matrix associated, actin dependent regulator of chromatin, subfamily a, member 2 (SMARCA2, BRM).; type: functional
Sequence of SWI/SNF-related matrix-associated actin-dependent regulator of chromatin subfamily A member 2 (P51531 whole entry): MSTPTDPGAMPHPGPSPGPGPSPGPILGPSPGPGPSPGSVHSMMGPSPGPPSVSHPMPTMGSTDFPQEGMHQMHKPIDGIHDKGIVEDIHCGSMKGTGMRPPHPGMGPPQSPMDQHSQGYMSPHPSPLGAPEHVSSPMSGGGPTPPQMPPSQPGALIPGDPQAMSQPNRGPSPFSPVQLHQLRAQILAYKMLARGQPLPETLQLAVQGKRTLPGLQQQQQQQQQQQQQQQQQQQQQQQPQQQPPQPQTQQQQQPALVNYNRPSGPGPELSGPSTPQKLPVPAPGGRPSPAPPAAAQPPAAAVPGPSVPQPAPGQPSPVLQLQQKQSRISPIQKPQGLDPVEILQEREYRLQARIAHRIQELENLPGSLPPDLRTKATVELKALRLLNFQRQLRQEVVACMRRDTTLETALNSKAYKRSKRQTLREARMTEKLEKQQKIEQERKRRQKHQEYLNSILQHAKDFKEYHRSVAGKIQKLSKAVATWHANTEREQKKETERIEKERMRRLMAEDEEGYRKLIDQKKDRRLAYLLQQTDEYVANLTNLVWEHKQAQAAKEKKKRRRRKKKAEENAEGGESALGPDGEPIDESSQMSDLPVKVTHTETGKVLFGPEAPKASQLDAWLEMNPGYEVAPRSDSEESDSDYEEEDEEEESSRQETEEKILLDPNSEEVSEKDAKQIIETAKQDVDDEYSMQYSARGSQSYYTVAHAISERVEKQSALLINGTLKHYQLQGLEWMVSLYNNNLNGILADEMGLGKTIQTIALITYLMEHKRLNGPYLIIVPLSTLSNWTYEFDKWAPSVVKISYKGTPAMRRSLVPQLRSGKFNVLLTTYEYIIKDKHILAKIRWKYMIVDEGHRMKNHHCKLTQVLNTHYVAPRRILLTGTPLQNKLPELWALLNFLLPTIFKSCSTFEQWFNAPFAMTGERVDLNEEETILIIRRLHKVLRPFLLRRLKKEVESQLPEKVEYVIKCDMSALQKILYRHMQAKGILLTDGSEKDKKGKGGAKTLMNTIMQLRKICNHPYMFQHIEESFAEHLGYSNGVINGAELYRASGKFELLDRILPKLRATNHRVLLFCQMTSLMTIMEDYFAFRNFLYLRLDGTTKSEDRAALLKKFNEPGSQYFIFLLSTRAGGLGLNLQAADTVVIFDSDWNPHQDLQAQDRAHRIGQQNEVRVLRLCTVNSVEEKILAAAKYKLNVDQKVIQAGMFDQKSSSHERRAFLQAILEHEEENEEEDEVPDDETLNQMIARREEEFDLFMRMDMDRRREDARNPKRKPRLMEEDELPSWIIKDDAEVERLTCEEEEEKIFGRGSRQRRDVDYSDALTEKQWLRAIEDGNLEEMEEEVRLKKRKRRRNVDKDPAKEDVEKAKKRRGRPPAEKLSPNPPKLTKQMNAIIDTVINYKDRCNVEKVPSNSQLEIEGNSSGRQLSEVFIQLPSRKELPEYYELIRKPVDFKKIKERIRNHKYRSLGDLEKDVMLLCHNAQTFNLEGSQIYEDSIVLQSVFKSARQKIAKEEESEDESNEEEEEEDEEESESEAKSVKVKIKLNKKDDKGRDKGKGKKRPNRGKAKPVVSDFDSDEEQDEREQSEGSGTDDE

[6] = molecular target: 5-hydroxytryptamine receptor 2A (Mus musculus, UniProt P35363); type: functional, cell-based;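 note: CHO-K1 cells with tagged receptor and beta-arrestin; agonist potency measured as compound-induced activation of the receptor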
Sequence of 5-hydroxytryptamine receptor 2A (P35363 whole entry): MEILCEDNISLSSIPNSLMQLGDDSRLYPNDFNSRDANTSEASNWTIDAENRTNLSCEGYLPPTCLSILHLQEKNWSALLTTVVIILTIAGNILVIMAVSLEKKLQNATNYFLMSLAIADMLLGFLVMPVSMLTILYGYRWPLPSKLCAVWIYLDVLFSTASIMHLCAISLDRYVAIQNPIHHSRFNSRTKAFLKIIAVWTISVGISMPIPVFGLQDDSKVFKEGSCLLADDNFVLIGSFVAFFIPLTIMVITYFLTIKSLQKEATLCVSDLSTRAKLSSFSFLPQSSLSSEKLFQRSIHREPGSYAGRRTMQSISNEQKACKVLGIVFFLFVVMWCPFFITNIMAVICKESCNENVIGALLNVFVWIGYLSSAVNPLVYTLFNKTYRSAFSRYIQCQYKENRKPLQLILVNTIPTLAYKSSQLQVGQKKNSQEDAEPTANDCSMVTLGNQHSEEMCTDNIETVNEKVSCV

Mu-type opioid receptor = Mu-type opioid receptor (Homo sapiens, UniProt P35372); type: functional, cell-based;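 note: U2OS cells with beta-arrestin recruitment to OPRM1 by beta-gal complementation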
[7] = molecular target: NAD-dependent protein deacylase sirtuin-5, mitochondrial (Homo sapiens, UniProt Q9NXA8); assay: SIRT5 desuccinylase inhibitors, dose response, biochemical, fluorescence imaging, cherry-pick, set 5 (AID 720591);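 note: desuccinylation of succinyl peptide AMC substrate read as fluorescence after trypsin release; potency of inhibitors that lower fluorescence and may act on trypsin instead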
Sequence of NAD-dependent protein deacylase sirtuin-5, mitochondrial (Q9NXA8 whole entry): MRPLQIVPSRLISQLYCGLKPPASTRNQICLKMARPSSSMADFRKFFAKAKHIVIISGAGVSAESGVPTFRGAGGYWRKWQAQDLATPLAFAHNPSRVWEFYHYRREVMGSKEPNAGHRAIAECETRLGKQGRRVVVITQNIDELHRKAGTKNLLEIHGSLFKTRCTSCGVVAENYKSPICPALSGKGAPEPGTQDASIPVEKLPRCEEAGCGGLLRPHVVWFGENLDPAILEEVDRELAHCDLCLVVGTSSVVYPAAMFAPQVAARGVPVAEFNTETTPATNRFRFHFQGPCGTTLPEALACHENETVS

Beta-lactamase [8] = molecular target: Beta-lactamase (Pseudomonas aeruginosa, UniProt Q79MP6);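 note: biochemical dose-response test of metallo-beta-lactamase enzyme inhibition, read out by epi-absorbance; purified recombinant IMP-1 metallo-beta-lactamase with nitrocefin as substrate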
[9] = molecular target: T2, Polyadenylate-binding protein 1 (Homo sapiens, UniProt P11940); assay: PABP1 MLLE–PAM2 interaction inhibitors, dose response, miRNA deadenylation inhibitor project, biochemical, fluorescence polarization, Cy5-PAM2 peptide, secondary (AID 602260); type: functional; conditions: read-out: IC50_Mean
T2 sequence (P11940 whole entry): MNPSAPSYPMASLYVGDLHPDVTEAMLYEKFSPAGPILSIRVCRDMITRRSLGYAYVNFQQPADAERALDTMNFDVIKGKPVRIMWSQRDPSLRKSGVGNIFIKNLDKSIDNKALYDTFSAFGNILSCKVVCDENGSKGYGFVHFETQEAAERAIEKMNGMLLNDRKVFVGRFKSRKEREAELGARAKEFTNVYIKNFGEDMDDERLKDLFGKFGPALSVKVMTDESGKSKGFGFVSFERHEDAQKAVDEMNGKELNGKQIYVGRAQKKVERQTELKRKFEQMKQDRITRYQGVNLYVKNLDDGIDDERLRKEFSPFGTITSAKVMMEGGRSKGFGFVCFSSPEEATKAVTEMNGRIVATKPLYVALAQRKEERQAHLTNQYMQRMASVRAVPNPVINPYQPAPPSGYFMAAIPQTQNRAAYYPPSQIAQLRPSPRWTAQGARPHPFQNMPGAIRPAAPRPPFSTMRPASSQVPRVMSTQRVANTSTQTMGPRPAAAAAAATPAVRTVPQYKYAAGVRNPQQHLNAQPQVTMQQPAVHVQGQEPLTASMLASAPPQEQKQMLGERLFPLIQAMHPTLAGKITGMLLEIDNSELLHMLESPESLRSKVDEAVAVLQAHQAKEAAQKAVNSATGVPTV

[10] = molecular target: T3, Zinc finger protein mex-5 (Caenorhabditis elegans, UniProt Q9XUB2); assay: MEX-5/TCR-2 RNA interaction inhibitors, dose response, biochemical, C. elegans, fluorescence polarization (AID 1960)
T3 sequence (Q9XUB2 whole entry): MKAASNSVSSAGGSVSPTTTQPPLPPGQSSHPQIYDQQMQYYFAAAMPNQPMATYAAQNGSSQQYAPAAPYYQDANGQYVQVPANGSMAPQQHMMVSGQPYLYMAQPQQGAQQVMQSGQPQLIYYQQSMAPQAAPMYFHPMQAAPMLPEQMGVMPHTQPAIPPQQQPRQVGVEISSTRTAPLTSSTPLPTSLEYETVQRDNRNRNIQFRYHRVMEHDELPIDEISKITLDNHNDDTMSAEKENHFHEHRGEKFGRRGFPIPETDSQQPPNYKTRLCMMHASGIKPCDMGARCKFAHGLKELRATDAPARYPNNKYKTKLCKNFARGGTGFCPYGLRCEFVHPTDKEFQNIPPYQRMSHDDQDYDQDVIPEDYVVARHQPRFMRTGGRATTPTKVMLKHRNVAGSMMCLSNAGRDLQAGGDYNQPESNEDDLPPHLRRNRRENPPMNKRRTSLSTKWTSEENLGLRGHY

[11] = molecular target: T2, Polyadenylate-binding protein 1; assay: PABP1 MLLE–PAM2 binding inhibitor potency, dose response, biochemical, fluorescence polarization, FITC-PAM2 peptide (AID 602259); type: functional; conditions: read-out: IC50_Mean
Beta-lactamase [12] = molecular target: Beta-lactamase (Salmonella choleraesuis (strain SC-B67), UniProt Q5J463)
[13] = molecular target: T4, RNA-binding protein pos-1 (Caenorhabditis elegans, UniProt G5EF15); assay: inhibitors of POS-1/mex-3 RNA binding, dose response, biochemical, fluorescence polarization (AID 1964);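 note: purified POS-1 fused to maltose binding protein made in E. coli; potency of compounds blocking POS-1 binding to fluorescent RNA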
T4 sequence (G5EF15 whole entry): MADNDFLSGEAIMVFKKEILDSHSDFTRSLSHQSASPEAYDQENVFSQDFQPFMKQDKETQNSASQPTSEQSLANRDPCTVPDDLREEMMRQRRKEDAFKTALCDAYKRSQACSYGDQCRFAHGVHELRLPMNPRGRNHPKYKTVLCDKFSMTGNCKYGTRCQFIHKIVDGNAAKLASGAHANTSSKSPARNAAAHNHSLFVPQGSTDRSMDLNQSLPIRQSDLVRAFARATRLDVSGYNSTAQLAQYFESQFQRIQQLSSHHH

H9c2 = assay: cells; type: functional, cell-based; conditions: Rattus norvegicus, H9c2, Myocardium
[14] = HEK293T cytotoxicity, dose response, cytotoxicity control for miR-122 modulator project, cell-based, activator set, cherry-pick (AID 720690); type: functional;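 note: HEK293T human cells scored for general mammalian cytotoxicity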
[15] = miR-122 activators in hepatoma reporter cells, dose response, cell-based, Huh7 psiCHECK-miR122, Renilla luciferase, cherry-picked (AID 651956); type: functional;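 note: huh7 hepatoma cells stably carrying a psiCHECK-2 miR-122 sensor plasmid; renilla luciferase signal reporting endogenous miR-122 activity after 48 h compound exposure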
[16] = NIH:OVCAR-3 ovarian cancer cell cytotoxicity, dose response, PAX8 inhibitor project, plate reader, dry powder samples (AID 743044); type: functional, cell-based
Paired box protein Pax-8 = Paired box protein Pax-8 (Homo sapiens, UniProt Q06710); assay: inhibitors of PAX8-driven TPO luciferase reporter, dose response, RMG-I cells, cherry-pick (AID 687027); type: functional, cell-based;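 note: luciferase reporter driven by Pax8 target thyroperoxidase promoter measured by SteadyGlo luminescence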
Sequence of Paired box protein Pax-8 (Q06710 whole entry): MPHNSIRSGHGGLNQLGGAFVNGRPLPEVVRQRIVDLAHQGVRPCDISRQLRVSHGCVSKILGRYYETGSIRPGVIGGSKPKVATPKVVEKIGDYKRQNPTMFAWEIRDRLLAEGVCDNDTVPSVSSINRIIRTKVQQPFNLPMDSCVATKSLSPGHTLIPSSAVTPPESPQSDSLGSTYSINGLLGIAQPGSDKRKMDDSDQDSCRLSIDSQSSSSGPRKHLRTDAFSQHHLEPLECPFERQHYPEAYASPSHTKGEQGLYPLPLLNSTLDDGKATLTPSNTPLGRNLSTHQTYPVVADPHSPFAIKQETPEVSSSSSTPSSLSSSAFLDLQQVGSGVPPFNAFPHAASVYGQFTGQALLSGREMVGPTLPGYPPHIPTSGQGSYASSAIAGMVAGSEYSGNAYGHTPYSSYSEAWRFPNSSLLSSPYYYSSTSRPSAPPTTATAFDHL

[17] = cytotoxicity in OVCAR8 ovarian cancer cells, dose response, PAX8 project, cell-based, plate reader, dry powder samples (AID 743197); type: functional; conditions: OVCAR-8
[18] = A2780 ovarian cancer cell cytotoxicity, dose response, cytotoxicity control, plate reader, dry powder samples (AID 743046); type: functional, cell-based
Cryptococcus neoformans = assay: PubChem AID 686997; type: functional, organism-based
[19] = P. falciparum ATP4 D1247Y mutant growth inhibitors, dose response, NITD609-resistant line, SYBR Green, dry powder (AID 1159571); type: functional, cell-based;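 note: parasites synchronized at ring stage by sorbitol before testing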
[20] = P. falciparum Dd2 growth inhibitors, dose response, SYBR Green, dry powder samples (AID 1159566); type: functional, cell-based;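 note: potency for growth inhibition with lower SYBR green DNA signal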
[21] = P. falciparum Dd2 growth inhibitors, dose response, SYBR Green, cherry-picked samples (AID 1159567); type: functional, cell-based
[22] = P. falciparum 3D7-ScDHODH growth inhibitors, dose response, SYBR Green, dry powder samples (AID 1159570); type: functional, cell-based;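 note: parasite growth measured after 72 hours of compound exposure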
[23] = CEM21 cell cytotoxicity, dose response, cytotoxicity control, plate reader, dry powder (AID 687026); type: functional, cell-based

## CC(C)(C)c1ccc(-c2nc(NCc3cccnc3)c3ccccc3n2)cc1
[1]
  IC50: > 7.72 µM (active)
[2]
  IC50: > 69.5 µM (inactive)

## O=C(CC(c1ccccc1)c1ccccc1)Nc1ccc2c(c1)OCCO2
Cytochrome P450 3A4
  AC50: 20 µM (inconclusive)
[3]
  EC50: 33.6 µM (active)
[1]
  IC50: > 69.5 µM (inactive)
[2]
  IC50: > 69.5 µM (inactive)

## O=C(c1cc(-c2cccs2)nc2ccccc12)N1CCN(CCO)CC1
Kallikrein-7
  EC50: > 69.5 µM (inactive)

## O=c1c(-c2ccc(Br)cc2)coc2c(CN3CCOCC3)c(O)ccc12
Protein skinhead-1
  IC50: > 100 µM (inactive)
Kallikrein-7
  EC50: 66.1 µM (inactive)

## CC1OC(OCC2OC(Oc3c(-c4ccc(O)cc4)oc4cc(O)cc(O)c4c3=O)C(O)C(O)C2O)C(O)C(O)C1O (configuration not stated)
Protein Tat
  IC50: > 100 µM (active)
Large T antigen
  IC50: 17.3 µM (active)

## O=c1c2ccccc2sc2c(CO)ccc(NCCN3CCCCC3)c12
Cytochrome P450 3A4
  AC50: 6.31 µM (inconclusive)
[4]
  EC50: > 91.1 µM (inactive)
[5]
  EC50: > 91.1 µM (inactive)

## CC(C)=CC(=O)N1CC[C@@H](N2CCN(c3ccccc3F)CC2)[C@H](O)C1
[6]
  EC50: 43.5 µM (inactive)
Mu-type opioid receptor
  EC50: 92.4 µM (inactive)

## COCC(C)n1c(C)cc(C(=O)COC(=O)CCc2nc(O)c3ccccc3n2)c1C (configuration not stated)
[7]
  AC50: > 30 µM (inactive)

## CCOC(=O)c1c2c3c(cccc3n(C)c1=O)C(=O)c1ccccc1-2
Beta-lactamase [8]
  IC50: > 59.6 µM (inactive)
[9]
  IC50: > 66 µM (inactive)
[10]
  EC50: 9.59 µM (active)
[11]
  IC50: 37.2 µM (inactive)
Beta-lactamase [12]
  IC50: > 59.6 µM (inactive)
[13]
  EC50: 8.67 µM (inconclusive)
H9c2
  IC50: > 79 µM (inactive)

## COc1cc(C(=O)Nc2nnc(Cc3ccccc3)s2)cc(OC)c1OC
[7]
  AC50: > 30 µM (inactive)

## C=C1C(=O)OC2C1CCC(C)C1(O)C=CC(=O)C21C (configuration not stated)
[4]
  EC50: > 91.2 µM (inactive)
[5]
  EC50: > 91.2 µM (inactive)

## CC(C)CC#Cc1ccc2c(c1)O[C@H](CN(C)C(=O)c1ccccc1)[C@H](C)CN([C@H](C)CO)S2(=O)=O
[14]
  AC50: 27.5 µM (active)
[15]
  AC50: 27.2 µM (active)

## COc1ccccc1C#Cc1ccc2c(c1)O[C@@H](CN(C)Cc1cccnc1)[C@@H](C)CN([C@H](C)CO)S2(=O)=O
[14]
  AC50: 9.3 µM (active)
[15]
  AC50: 25.4 µM (active)

## C[C@@H]1CN([C@H](C)CO)C(=O)c2cc(NS(=O)(=O)c3ccc(F)cc3)ccc2O[C@@H](C)CCCCO[C@H]1CN(C)S(=O)(=O)c1ccc(Cl)cc1
[16]
  AC50: 32 µM (active)
Paired box protein Pax-8
  AC50: 6.83 µM (active)
[17]
  AC50: > 70 µM (inactive)
[18]
  AC50: 2.97 µM (active)

## COC(=O)C1=C(C)N(Cc2ccccc2)C(=S)NC1c1ccc(Cl)cc1 (configuration not stated)
Cryptococcus neoformans
  AC50: 28.7 µM (active)

## COc1cccc(S(=O)(=O)N(C)C[C@@H]2OCc3ccccc3-c3c(n(C)c4ccccc34)C(=O)N([C@H](C)CO)C[C@@H]2C)c1
[19]
  AC50: 0.46 µM (active)
[20]
  AC50: 0.322 µM (active)
[21]
  AC50: 0.832 µM (active)
Paired box protein Pax-8
  AC50: 6.87 µM (active)
[22]
  AC50: 0.476 µM (active)
[17]
  AC50: 38.6 µM (active)

## Cc1ccc(-c2nnc3ccc4c(C(F)(F)F)cc(C(F)(F)F)nc4n23)cc1
[23]
  AC50: > 70 µM (inactive)

## C[C@H]1CN([C@@H](C)CO)C(=O)Cc2cc(NC(=O)Nc3ccc(C(F)(F)F)cc3)ccc2O[C@@H]1CN(C)C(=O)Nc1ccc2c(c1)OCO2
[19]
  AC50: 0.93 µM (active)
[20]
  AC50: 0.9 µM (active)
[21]
  AC50: 1.51 µM (active)
[22]
  AC50: 1.11 µM (active)
